Reference: US4742049A, “Semisynthetic erythromycin antibiotics” (Abbott Laboratories, priority 1986, dated 1988)
Values after ≈ are worked out from the molar mass of the structure shown. Where two headings read alike, the source gives them in different places.

What was measured:
Haemophilus influenzae = assay: MIC against strains of Haemophilus influenzae; format: cell-based; conditions: Haemophilus influenzae, read-out: MIC
Protocol: (§1) Erythromycin A was used for this purpose.
(§2) After incubation, each disk is read.
In the manner of Example 23, the efficacy of compounds of this invention were tested against numerous strains of Haemophilus influenzae.

gastointestinal motility = assay: gastrointestinal motility in sensitive animal models (general statement); format: in vivo; conditions: compared with parent erythromycin compound
[1] = test system: gut contractions (stomach, duodenum, jejunum); conditions: dog, in vivo, iv, 4 mg/kg
Protocol: Compounds of this invention have been tested for gastrointestinal stimulating activity in a dog model at 4 mg/kg intravenously. Contractions in the gut were recorded with surgically implanted strain gauges. […] Ratios were calculated for the stomach, duodenum and jejunum, and a final arithmetic mean index was calculated and reported in Table 1.

Pseudomonas cepacia = assay: antimicrobial spectrum, agar dilution MIC; format: cell-based; conditions: Burkholderia cepacia, strain 2961; BHI agar, 20-24 hours; read-out: MIC
Protocol: as §1, §2

Micrococcus luteus = assay: antimicrobial spectrum, agar dilution MIC; format: cell-based; conditions: 20-24 hours
Klebsiella pneumoniae = assay: antimicrobial spectrum, agar dilution MIC; format: cell-based; conditions: strain 8045, BHI agar, 20-24 hours
Staph. epidermidis = assay: antimicrobial spectrum, agar dilution MIC; format: cell-based; conditions: Staphylococcus epidermidis, BHI agar, 20-24 hours
Protocol: (§3) Twelve petri dishes containing successive aqueous dilutions of the test compound mixed with 10 ml of sterilized Brain Heart Infusion agar (Difco 0418-01-5) are prepared. Each plate is inoculated with 1:100 (or 1:10 for slow-growing strains, primarily Micrococcus and Streptococcus) dilutions of up to 32 different microorganisms, using a Steers replicator block. The inoculated plates are incubated at 35°-37° C. for 20-24 hours. In addition, a control plate, using BHI agar containing no test compound, is prepared and incubated at the beginning and end of each test.
(§4) An additional plate containing a compound having known susceptibility patterns for the organisms being tested and belonging to the same antibiotic class as the test compound is also prepared and incubated as a further control, as well as to provide test-to-test comparability.
(§5) After incubation, each disk is read. The MIC is defined as the lowest concentration of drug yielding no growth, a slight haze, or sparsely isolated colonies on the inoculum spot as compared to the growth control.

Pseudomonas aeruginosa = assay: antimicrobial spectrum, agar dilution MIC; format: cell-based; conditions: Pseudomonas aeruginosa, BHI agar, 20-24 hours
Protocol: as §3, §4, §5

Providencia stuartii = assay: antimicrobial spectrum, agar dilution MIC; format: cell-based; conditions: strain CMX 640, BHI agar, 20-24 hours
Protocol: as §3, §4, §5

Strep. faecium = assay: antimicrobial spectrum, agar dilution MIC; format: cell-based; conditions: Enterococcus faecium, ATCC8043, strain ATCC 8043; BHI agar, 20-24 hours
Protocol: as §3, §4, §5

Staph. aureus = assay: antimicrobial spectrum, agar dilution MIC; format: cell-based; conditions: Staphylococcus aureus, BHI agar, 20-24 hours
Protocol: as §3, §4, §5

Strep. pyogenes = assay: antimicrobial spectrum, agar dilution MIC; format: cell-based; conditions: Streptococcus pyogenes, BHI agar, 20-24 hours
Protocol: as §3, §4, §5

Strep. agalactiae = assay: antimicrobial spectrum, agar dilution MIC; format: cell-based; conditions: Streptococcus agalactiae, strain CMX 508; BHI agar, 20-24 hours
Protocol: as §3, §4, §5

Strep. bovis = assay: antimicrobial spectrum, agar dilution MIC; format: cell-based; conditions: Streptococcus equinus, strain A5169; BHI agar, 20-24 hours
Protocol: as §3, §4, §5

Acinetobacter SP = assay: antimicrobial spectrum, agar dilution MIC; format: cell-based; conditions: strain CMX 669, BHI agar, 20-24 hours
Lactobacillus Casei = assay: antimicrobial spectrum, agar dilution MIC; format: cell-based; conditions: Lacticaseibacillus casei, ATCC7469, strain ATCC 7469; BHI agar, 20-24 hours
Ent. aerogenes = assay: antimicrobial spectrum, agar dilution MIC; format: cell-based; conditions: Klebsiella aerogenes, ATCC13048, strain ATCC 13048; BHI agar, 20-24 hours; read-out: MIC
E. coli = assay: antimicrobial spectrum, agar dilution MIC; format: cell-based; conditions: Escherichia coli, BHI agar, 20-24 hours

How did the MIC (Haemophilus influenzae; ATCC9006, strain ATCC 9006) turn out when CC[C@H]1OC(=O)[C@H](C)[C@@H](O[C@H]2C[C@@](C)(OC)[C@@H](O)[C@H](C)O2)[C@H](C)[C@@H](O[C@@H]2O[C@H](C)C[C@H](N(C)C)[C@H]2O)[C@](C)(OC)C[C@@H](C)C(=O)[C@H](C)[C@H]2N(CCN(C)C)C(=O)O[C@]12C [Example 9, 11-deoxy-6-O-methyl erythromycin A 11,12-[N-(2-dimethylamino)ethyl]cyclic carbamate] was run?
Its MIC is 0.25 µg/mL (≈ 0.296 µM).

What about the MIC (Haemophilus influenzae; ATCC9795, strain ATCC 9795) of the same compound?
The MIC was 0.25 µg/mL (≈ 0.296 µM).

What about the MIC (Haemophilus influenzae; ATCC10211, strain ATCC 10211) of the same compound?
The MIC was 0.5 µg/mL (≈ 0.592 µM).

What about the MIC (Haemophilus influenzae; ATCC19418, strain ATCC 19418) of the same compound?
Its MIC is 0.5 µg/mL (≈ 0.592 µM).

What about the MIC (Haemophilus influenzae; strain 504) of the same compound?
Its MIC is 1 µg/mL (≈ 1.18 µM).

And the MIC (Haemophilus influenzae; strain 519A)?
The MIC was 0.5 µg/mL (≈ 0.592 µM).

And the MIC (Haemophilus influenzae; strain 566A)?
Its MIC is 0.5 µg/mL (≈ 0.592 µM).

What about the MIC (Haemophilus influenzae; strain 588A) of the same compound?
The MIC was 0.25 µg/mL (≈ 0.296 µM).

What about the MIC (Haemophilus influenzae; strain 632A) of the same compound?
The MIC was 0.5 µg/mL (≈ 0.592 µM).

What about the MIC (Haemophilus influenzae; strain 667A) of the same compound?
Its MIC is 0.25 µg/mL (≈ 0.296 µM).

And the MIC (Haemophilus influenzae; strain 747C)?
Its MIC is 0.25 µg/mL (≈ 0.296 µM).

What about the MIC (Haemophilus influenzae; strain 751) of the same compound?
Its MIC is 0.25 µg/mL (≈ 0.296 µM).

What about the MIC (Haemophilus influenzae; strain 1177) of the same compound?
Its MIC is 0.5 µg/mL (≈ 0.592 µM).

And the MIC (Haemophilus influenzae; strain 1435)?
Its MIC is 0.12 µg/mL (≈ 0.142 µM).

What about the MIC (Haemophilus influenzae; strain 5036B) of the same compound?
The MIC was 0.5 µg/mL (≈ 0.592 µM).

And the MIC (Haemophilus influenzae; strain DILL AMP R)?
The MIC was 0.25 µg/mL (≈ 0.296 µM).

And the MIC (Haemophilus influenzae; strain SOL AMP R)?
Its MIC is 0.25 µg/mL (≈ 0.296 µM).

And the MIC (Haemophilus influenzae; strain SPK AMP R)?
Its MIC is 0.25 µg/mL (≈ 0.296 µM).

What about the “gastointestinal motility and associated side-effects” value (gastointestinal motility) of the same compound?
The value was “much less gastointestinal motility and associated side-effects than the parent erythromycin compound”.

And the “Gastrointestinal Motility Index” value [1]?
The value was “.013”.

CC[C@H]1OC(=O)[C@H](C)[C@@H](O[C@H]2C[C@@](C)(OC)[C@@H](O)[C@H](C)O2)[C@H](C)[C@@H](O[C@@H]2O[C@H](C)C[C@H](N(C)C)[C@H]2O)[C@](C)(OC)C[C@@H](C)C(=O)[C@H](C)[C@H]2N(C3CC3)C(=O)O[C@]12C [Example 5, 11-deoxy-6-O-methyl erythromycin A 11,12-(N-cyclopropyl)cyclic carbamate] was tested. Which MIC (Pseudomonas cepacia) did it give?
Its MIC is over 100 µg/mL.

What about the MIC (Micrococcus luteus; strain 4698, BHI agar) of the same compound?
The MIC was 0.2 µg/mL (≈ 0.246 µM).

And the MIC (Micrococcus luteus; strain 9341, BHI agar)?
Its MIC is 0.05 µg/mL (≈ 0.0615 µM).

And the MIC (Klebsiella pneumoniae)?
The MIC was 100 µg/mL (≈ 123 µM).

What about the MIC (Staph. epidermidis; strain 3519) of the same compound?
Its MIC is 0.39 µg/mL (≈ 0.48 µM).

And the MIC (Staph. epidermidis; strain 3519 RARI)?
The MIC was 0.39 µg/mL (≈ 0.48 µM).

What about the MIC (Pseudomonas aeruginosa; strain 5007) of the same compound?
Its MIC is over 100 µg/mL.

What about the MIC (Pseudomonas aeruginosa; strain BMH10) of the same compound?
The MIC was 100 µg/mL (≈ 123 µM).

What about the MIC (Pseudomonas aeruginosa; strain K799/61) of the same compound?
The MIC was 6.2 µg/mL (≈ 7.63 µM).

And the MIC (Pseudomonas aeruginosa; strain K799/WT)?
The MIC was over 100 µg/mL.

And the MIC (Providencia stuartii)?
Its MIC is over 100 µg/mL.

And the MIC (Strep. faecium)?
The MIC was 0.1 µg/mL (≈ 0.123 µM).

And the MIC (Staph. aureus; ATCC6538P, strain ATCC 6538P)?
Its MIC is 0.39 µg/mL (≈ 0.48 µM).

And the MIC (Staph. aureus; strain 45)?
Its MIC is 0.2 µg/mL (≈ 0.246 µM).

What about the MIC (Staph. aureus; strain 45 RAR 2) of the same compound?
The MIC was 0.39 µg/mL (≈ 0.48 µM).

What about the MIC (Staph. aureus; strain A5177) of the same compound?
The MIC was 1.56 µg/mL (≈ 1.92 µM).

And the MIC (Staph. aureus; strain CMX 686B)?
The MIC was 0.39 µg/mL (≈ 0.48 µM).

What about the MIC (Strep. pyogenes; strain 930) of the same compound?
Its MIC is over 100 µg/mL.

What about the MIC (Strep. pyogenes; strain EES61) of the same compound?
The MIC was 0.02 µg/mL (≈ 0.0246 µM).

What about the MIC (Strep. agalactiae) of the same compound?
Its MIC is 0.02 µg/mL (≈ 0.0246 µM).

And the MIC (Strep. bovis)?
Its MIC is 0.02 µg/mL (≈ 0.0246 µM).

What about the MIC (Acinetobacter SP) of the same compound?
The MIC was 25 µg/mL (≈ 30.7 µM).

What about the MIC (Lactobacillus Casei) of the same compound?
The MIC was 0.05 µg/mL (≈ 0.0615 µM).

What about the MIC (Ent. aerogenes) of the same compound?
The MIC was 100 µg/mL (≈ 123 µM).

What about the MIC (E. coli; strain DC-2) of the same compound?
The MIC was 100 µg/mL (≈ 123 µM).

What about the MIC (E. coli; strain H560) of the same compound?
Its MIC is 25 µg/mL (≈ 30.7 µM).

What about the MIC (E. coli; strain JUHL) of the same compound?
The MIC was 50 µg/mL (≈ 61.5 µM).

What about the MIC (E. coli; strain KNK 437) of the same compound?
Its MIC is 100 µg/mL (≈ 123 µM).

And the MIC (E. coli; strain SS)?
The MIC was 0.2 µg/mL (≈ 0.246 µM).
